Laboratory results reported in a melting point compilation (Tetko et al.; mined from patent text by program, amines drawn as free bases though some values may be those of a salt).

Row | Structure (SMILES) | melting point [°C]
1 | O=C(Nc1ccccc1)c1ccc(Nc2ccccc2)nc1 | 264 to 266
2 | O=c1ccc(C(F)(F)F)cn1Cc1ccccc1NCCO | 114 to 115
3 | N#CC1(c2ccc(F)cc2)CCC(N2CCC3(CC2)C(=O)NCN3c2ccccc2)CC1 (stereo not given) | 236
4 | O=C1CCC(N2C(=O)c3cccc(NC(=O)CCCCCNC(=O)OCc4ccccc4)c3C2=O)C(=O)N1 (stereo not given) | 122 to 125
5 | CCOCC1OC(n2cc(C(F)(F)F)c(=O)n(C(=O)c3ccccc3)c2=O)CC1O (stereo not given) | 156 to 157
6 | CC1=C(N)C(C)C2CC(C)(CC3CCN(c4ccc(-n5ccnc5)cc4)CC3)OC2=C1C (stereo not given) | 170 to 172
7 | CCCCCCCCC=CCCCCCCCC(N)=O | 68
8 | CCCC[C@H](NC(=O)[C@H](CC(C)C)NC(=O)c1cccc(C)c1)C(=O)CSCc1ccco1 | 123 to 126
9 | NSc1nc(N)nc2nc[nH]c12 | > 250
10 | COC(=O)C12COc3cc(C(F)(F)F)ccc3C1=NN(C(=O)Nc1ccc(Br)cn1)C2 (stereo not given) | 179 to 181
11 | CCc1nc(Cc2ccc([N+](=O)[O-])cc2)no1 | 69 to 70
12 | CC(=O)OCC(=O)c1ccc(C)cc1 | 85
13 | O=C1OC(Cc2ccccc2)(Cc2ccccc2)C2CNCCN12 (stereo not given) | 132 to 133
14 | CC(C)(C)OC(=O)Nc1ccccc1C1Cc2ccccc2N1C(=O)OC(C)(C)C (stereo not given) | 148 to 150
15 | CCOc1nc(=O)n(C(=O)NC(=O)CCl)s1 | 132
16 | CC(F)c1nc[nH]c(=O)c1Cl (stereo not given) | 190 to 191
17 | FC(F)(F)c1ccc(C=Cc2nc(CNc3ccc(CCCCn4ccnn4)cc3)co2)cc1 | 113 to 115
18 | CN1CCc2cc(O)c(O)c(Sc3cccs3)c2CC1 | 189 to 191
19 | CN(C)C1(c2ccccc2)CCC(NC(=S)NCCCc2ccccc2)CC1 (stereo not given) | 75 to 80
20 | CCCc1cnc2c(c1)C(=O)N1C2=NC(=O)C1(C)C(C)C (stereo not given) | 116
21 | CCN(c1cc2c3c(c1)CCCC3CCC2)c1ncc(C(=O)O)cn1 | 252 to 253

Row | Structure (SMILES) | melting point [°C]
22 | O=C(O)CC1=Cc2ccccc2C1 | 114 to 115
23 | O=C1CCN(c2cc(Cl)ncn2)CC1 | 100 to 103
24 | C#CCNC(=O)N1CC(c2ccc(C(C)(C)C)cc2)C1 | 141
25 | CCCCCCCCN(C)C(N)=NC#N | 101 to 104
26 | c1ccc(CP(Cc2ccccc2)Cc2ccccc2-c2ccccc2CP(Cc2ccccc2)Cc2ccccc2)cc1 | 163 to 167
27 | CCOc1ncc(I)cc1C(N)=O | 176 to 179
28 | Cc1c([N+](=O)[O-])ccc2c1SC1(Cl)C=C(C(F)(F)F)C=C(Cl)C1O2 (stereo not given) | 135
29 | COCCOCCOCC(=O)N(C)c1c(I)c(N)c(I)c(C(=O)O)c1I | 100 to 109
30 | CC1(C)C2C=CC3(C)C(C2)C(=O)CCC13O (stereo not given) | 112 to 115
31 | O=C1NCCN1OCc1ccccc1 | 64 to 65
32 | CC(C)CCCCCCCCCCCCc1ccc(O)cc1O | 70
33 | O=C1c2cccc3cc4ccccc4c(c23)C(=O)N1CCNCCCCCNCCN1C(=O)c2cccc3cc4ccccc4c(c23)C1=O | 122
34 | Cc1cc([N+](=O)[O-])c(C(=O)O)cc1F | 163 to 165
35 | CC(C(=O)c1ccccc1)(c1ccccc1)c1ccccc1Sc1ccccc1C(C)(C(=O)c1ccccc1)c1ccccc1 (stereo not given) | 101
36 | COc1ccc2c(c1)OC=C(C(=O)N1CCN(C(c3ccc(F)cc3)c3ccc(F)cc3)CC1)O2 | 65
37 | CN(CC(O)c1ccc(Br)cc1)C(=O)OC(C)(C)C (stereo not given) | 80 to 82
38 | COc1ccc(C2=NN(C3CCN(C(=O)CN4C(=O)CCC4=O)CC3)C(=O)C(C)(C)C2)c2c1OC(C)(C)C2 | 240 to 241
39 | COc1ccc2c(c1O)C13CCN(CC4CC4)C(C2)C1CC(C)C(=O)C3 (stereo not given) | 176 to 178
40 | NCC1Cc2c(C(F)(F)F)ccc(Cl)c2O1 (stereo not given) | > 250
41 | CC(C)(C)N1C(=O)c2cnc(CCl)cc2C1=O | 62 to 64
42 | NC(=O)CC[C@H](NC(=O)CCc1ccc(OCc2ccccc2)cc1OCc1ccccc1)C(=O)N1CCN(Cc2ccccc2)CC1 | 145 to 147

Next, values leading:

Row | melting point [°C] | Structure (SMILES)
43 | 130 to 132 | Nc1cccnc1CCCCNc1ncc(Cc2cccnc2)c(=O)[nH]1
44 | 70 | C#CCOC(=O)C1=C(C)NN=C(CC)C1c1cccc([N+](=O)[O-])c1 (stereo not given)
45 | 251 to 252 | O=C(O)c1ccc2c(c1)NCc1ccccc1O2
46 | 266 to 269 | O=S1(=O)c2ccccc2-c2nc3ccccc3c(Cl)c21
47 | 145 to 150 | COc1cc(C)ccc1S(=O)(=O)NC(=O)C(c1ccc2c(c1)OCO2)c1cn(C)c2ccc(Br)cc12 (stereo not given)
48 | 96 to 97.8 | COC(=O)COCCOc1ccc([N+](=O)[O-])cc1
49 | 94 to 96 | O=C(O)C1Cc2cc(-c3ccc(Cl)cc3)ccc2O1 (stereo not given)
50 | 86 | COC(=O)c1ccccc1NCc1ccncc1
51 | 126 to 130 | CN(Cc1ccc(OC(=O)Cc2ccccc2Nc2c(Cl)cccc2Cl)cc1)CC(C)(C)SN=O
52 | 83 to 84 | COc1cccc(Nc2ccnc(Nc3cc(OC)c(OC)c(OCc4ccccc4)c3)n2)c1
53 | 163 | COc1ccc(C2C(=O)c3ccc(OC)cc3C2=O)cc1 (stereo not given)
54 | 252 to 253 | COc1cc2ncnc(NC3=CC(=O)C4(c5ccccc5)OC4C3=O)c2cc1OC (stereo not given)
55 | 145 to 146 | CNC(=O)Nc1cc(CNc2ncccc2C(=O)OC)ccn1
56 | 166 to 167 | COC(=O)C1=C(C)NC(C)=C(C(=O)OC)C1c1cc(Br)ccc1OCC(=O)NCCO[N+](=O)[O-]
57 | 146 to 148 | Cn1c(CC(=O)O)cc2ccccc21
58 | 254 to 256 | Cn1cc(C2=C(c3cn(CCCCl)c4ccccc34)C(=O)NC2=O)c2ccccc21
59 | 144 to 145 | CC(=O)NCCn1ccc2c1-c1ccc(Cl)cc1CC2
60 | 52 to 53 | CCOC(=S)c1c(CC)nc(C)nc1NCCc1ccc(OC)c(OC)c1
61 | 216 to 217 | Nc1nc2c(c(Nc3ccc(Cl)cc3)n1)-c1ccccc1C2
62 | 186 to 188 | O=C(Nc1ccccc1)Nc1ccccn1

Row | melting point [°C] | Structure (SMILES)
63 | 63 to 65 | CC(C)(C#N)c1ccc(Cl)nc1
64 | 195 to 196 | N#Cc1ccc(-c2nc(C(F)(F)F)c(C(=O)O)s2)cc1
65 | 186 to 188 | COc1ccnc(CCc2nc3cc(-c4ccc(S(=O)(=O)N5CCC(C)CC5)cc4)cnc3[nH]2)c1
66 | 44 to 46 | COc1cc(F)c(F)cc1OCCN
67 | 155 to 157 | CC(C)(n1cncn1)C(O)(Cn1cncn1)c1ccc(F)cc1F (stereo not given)
68 | 142 to 144 | CC(=O)ON=C1CCCN(C(=O)c2ccc(NC(=O)c3ccccc3Cl)cc2)c2ccccc21
69 | 199 to 201 | Cn1c(=O)cnn(-c2cc(O)c(Cl)cc2Cl)c1=O
70 | 179 to 184 | Cc1cccc(-c2[nH]c(C(C)C)nc2-c2cccc(-c3ccc(NS(C)(=O)=O)cc3F)c2)n1
71 | 108 to 110 | CC(C)=CCCC(C)=CCOc1ccc(C(=O)NCc2ccncc2)cc1
72 | 115 to 118 | COc1cc(OC)nc(Oc2ccnc3c(Cl)cccc23)n1
73 | 145 | CC=C1CC1C(=C1C(=O)OC(=O)C1c1cc(C)n(-c2ccccc2)c1C)C1CC1 (stereo not given)
74 | 130 to 131 | CC(=O)OCC(CCc1nc2nc(N)nc(SCCC(=O)c3ccccc3)c2[nH]1)COC(C)=O
75 | 177 to 182 | CCCCc1nc2c(N)nc3ccc(O)cc3c2n1CCCCNC(=O)N1CCOCC1
76 | 182 to 183 | CCCc1nc2c(N)nc3cc(Br)ccc3c2n1CCCON=C(C)C
77 | 158 to 159 | COc1cccc(-c2ccc3cc(OC)ccc3c2C(=O)c2ccc(O)cc2)c1
78 | 152 to 154 | C=CCNc1c(CO)cnc2cn(C(C)(C)OC)nc12
79 | 146 to 147 | COc1nc2ccccc2c(-c2ccccc2)c1C(=O)N(C)Cc1cc(C(F)(F)F)cc(C(F)(F)F)c1
80 | 234 to 236 | Cn1nc(-c2nc(C#Cc3ccccc3)c(N)nc2-c2ccccc2)ccc1=O
81 | 127 to 129 | CCOC(=O)Nc1c(F)cc(Cl)c2nc(C(C)(C)C)oc12
82 | 140 to 143 | Cc1ccc(S(=O)(=O)n2cc(CO)nc2C)cc1

Row | melting point [°C] | Structure (SMILES)
83 | 90 to 93 | CCOC(=O)C(Cc1ccc(O)cc1)Oc1ccc(Cl)cc1 (stereo not given)
84 | 133 to 135 | Cc1cn(-c2ccc(NC(=O)c3ccc(Cl)c(C#Cc4ccc(NC(C)C)nn4)c3)cc2C(F)(F)F)cn1
85 | 133 to 134 | COc1ccccc1Oc1c(Cl)nc(N2CCOCC2)nc1OCCOCc1ccccc1
86 | 166 to 167 | COc1ccc(-c2nc(CCBr)nc3cc(OC)c(OC)cc23)cc1OC
87 | 182 to 184 | CC(=O)Nc1cccc2c1C1(COc3cc4c(cc31)OCCO4)C(=O)N2C (stereo not given)
88 | 129 to 131 | COc1ccc(Cn2ccn(C3CCc4ccccc4C3)c2=S)cc1OC (stereo not given)
89 | 139 | CC(C)(C)OC(=O)c1nn(-c2ccc(Cl)cc2Cl)c(-c2ccc(Cl)cc2)c1CBr
90 | 124 to 126 | CC(C)C1CCN(Cc2ccc(COc3cccc4c3CN(C3CCC(=O)NC3=O)C4=O)cc2)CC1 (stereo not given)
91 | 102 to 103 | CCOC(=O)c1sc(N2C[C@@H](Cc3ccccc3)NC2=O)nc1C
92 | 150 to 151 | COc1ccc(C2CCC(=O)CC2=O)cc1 (stereo not given)
93 | 160 to 162 | CC(=O)O[C@@H]1[C@H](OC(C)=O)[C@@H](C)O[C@H]1n1c(Br)nc2c(Cl)c(Cl)c(Cl)cc21
94 | 177 to 178 | CCCn1nc2c(N)nc3ccccc3c2c1CC(C)(C)NC(=O)C(C)C
95 | 109 to 111 | COc1cc(CCCCCCCC2OC(=O)NC2=O)ccc1OCc1nc(-c2ccccc2)oc1C (stereo not given)
96 | 126 to 128 | CCC(CC)C(c1ccnn1-c1ccccc1)N(C)S(=O)(=O)c1ccc(Cl)s1 (stereo not given)
97 | 103 to 104 | COc1ccc(OC)c(C=CC(=O)C=Cc2cc(OC)ccc2OC)c1
98 | 192 to 195 | COc1ccc(N2CCN(c3c(C)c(C)c4c(c3-c3ccoc3)CC(C)(C)O4)CC2)cc1
99 | 192 to 193 | COCCOc1cc([N+](=O)[O-])c2[nH]c(C(=O)O)cc2c1
100 | 290 to 295 | Cn1c(=O)c2ccc(N)nc2n(C)c1=O
